Results from patent publication US10668016B2, “Complexes of abiraterone acetate, process for the preparation thereof and pharmaceutical compositions containing them” (NanGenex Nanotechnology Incorporated, priority 2015, dated 2020).
Where two headings read alike, the source gives them in different places.

Experiments:
[1] = cited from earlier work; for compound present in feces, % of the administered dose: oral 14C-abiraterone acetate
[2] = system: human plasma proteins, albumin and alpha-1 acid glycoprotein; conditions: cited from earlier work
P-glycoprotein (P-gp) = P-glycoprotein (P-gp) (Homo sapiens, UniProt P08183); conditions: cited from earlier work
[3] = cited from earlier work
[4] = system: serum testosterone and other androgens; conditions: patients, placebo-controlled phase 3 clinical trial; cited from earlier work
[5] = cited from earlier work; remark: listed apart in the source
[6] = Apparent solubility in distilled water; format: physicochemical; conditions: distillated water, room temperature, 100 nm filter
Text: The samples were dispersed in distillated water and the resulting dispersions were filtered by 100 nm disposable syringe filter. […] The filtrate may contain Abiraterone acetate complex particles which could not be filtrated out using 100 nm pore size filter.

PAMPA permeability = conditions: comparative in-vitro PAMPA assay
Protocol: PAMPA permeability measurements were performed as described by M Kansi et al. (Journal of medicinal chemistry, 41, (1998) pp 1007) with modifications based on S. Bendels et al (Pharmaceutical research, 23 (2006) pp 2525). Permeability was measured in a 96-well plate assay across an artificial membrane composed of dodecane with 20% soy lecithin supported by a PVDF membrane (Millipore, USA). The receiver compartment was phosphate buffered saline (pH 7.0) supplemented with 1% sodium dodecyl sulfate. The assay was performed at room temperature; incubation time was 1-24 hours. The concentration in the receiver compartment was determined by UV-VIS spectrophotometry (Thermo Scientific Genesys S10).

[7] = 1,000 mg daily, patients with metastatic CRPC
[8] = high-fat (57% fat, 825 calories) meal
[9] = low-fat meal (7% fat, 300 calories)

Chain of P-glycoprotein (P-gp) (P08183 whole entry): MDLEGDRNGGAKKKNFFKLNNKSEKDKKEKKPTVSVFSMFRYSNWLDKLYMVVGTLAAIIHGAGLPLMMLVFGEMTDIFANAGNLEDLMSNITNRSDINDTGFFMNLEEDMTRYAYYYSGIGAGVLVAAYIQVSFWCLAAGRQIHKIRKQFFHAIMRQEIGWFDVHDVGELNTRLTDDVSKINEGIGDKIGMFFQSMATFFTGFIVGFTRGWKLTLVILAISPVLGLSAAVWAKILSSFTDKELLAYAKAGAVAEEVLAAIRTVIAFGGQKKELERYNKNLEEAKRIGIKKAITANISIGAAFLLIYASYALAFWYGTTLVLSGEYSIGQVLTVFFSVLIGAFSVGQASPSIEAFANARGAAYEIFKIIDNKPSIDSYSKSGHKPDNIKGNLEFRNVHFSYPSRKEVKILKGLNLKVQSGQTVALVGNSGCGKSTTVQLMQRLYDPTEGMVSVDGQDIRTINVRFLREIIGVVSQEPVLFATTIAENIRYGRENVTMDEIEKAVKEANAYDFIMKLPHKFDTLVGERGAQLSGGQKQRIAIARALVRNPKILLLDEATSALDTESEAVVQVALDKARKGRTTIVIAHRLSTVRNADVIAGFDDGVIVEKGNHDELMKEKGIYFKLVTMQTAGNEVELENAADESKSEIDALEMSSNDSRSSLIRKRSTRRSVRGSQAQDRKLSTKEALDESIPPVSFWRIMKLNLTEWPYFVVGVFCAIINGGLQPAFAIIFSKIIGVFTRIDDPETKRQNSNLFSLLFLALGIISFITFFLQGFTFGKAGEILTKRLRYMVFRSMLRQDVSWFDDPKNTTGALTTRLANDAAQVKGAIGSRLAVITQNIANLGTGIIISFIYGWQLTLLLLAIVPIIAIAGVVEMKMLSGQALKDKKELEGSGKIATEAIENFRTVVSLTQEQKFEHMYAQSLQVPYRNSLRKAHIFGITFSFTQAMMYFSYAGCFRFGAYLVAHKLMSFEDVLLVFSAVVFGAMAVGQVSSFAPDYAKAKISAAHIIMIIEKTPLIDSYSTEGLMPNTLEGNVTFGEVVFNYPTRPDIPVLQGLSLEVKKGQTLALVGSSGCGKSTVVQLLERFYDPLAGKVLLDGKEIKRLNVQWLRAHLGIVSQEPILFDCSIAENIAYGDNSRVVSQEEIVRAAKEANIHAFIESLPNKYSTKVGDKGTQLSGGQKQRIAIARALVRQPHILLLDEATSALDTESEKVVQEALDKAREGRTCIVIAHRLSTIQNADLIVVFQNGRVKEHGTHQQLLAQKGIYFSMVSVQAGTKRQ

## C[C@]12CC[C@H](O)CC1=CC[C@@H]1[C@@H]2CC[C@]2(C)C(c3cccnc3)=CC[C@@H]12 [Abiraterone]
[1]
  compound present in feces, % of the administered dose: ~22%
[2]
  bound to human plasma proteins: > 99%
P-glycoprotein (P-gp); in vitro, clinically relevant concentrations
  P-gp substrate: not substrates

## CC(=O)O[C@H]1CC[C@@]2(C)C(=CC[C@@H]3[C@@H]2CC[C@]2(C)C(c4cccnc4)=CC[C@@H]32)C1 [Abiraterone acetate, (3β)-17-(3-pyridinyl) androsta-5,16-dien-3-yl acetate]
[3]
  Solubility in water: practically insoluble
[1]
  compound present in feces, % of the administered dose: approximately 55%
P-glycoprotein (P-gp); not told
  P-gp inhibition: inhibitor
  P-gp substrate: not substrates
[4]
  Effect on serum testosterone and other androgens: decreased
[5]; [7]
  steady-state AUC (mean±SD): 993 ± 639 ng·h/mL
  steady-state Cmax (mean±SD): 226 ± 178 ng/mL
[5]; below detectable levels in >99% of the analyzed samples
  Abiraterone acetate plasma concentrations: < 0.2 ng/mL
[5]; dose doubled from 1,000 to 2,000 mg
  increase in the mean AUC when dose doubled: 8%
[5]; [8]
  Abiraterone AUC0-∞ higher with food: ~10 fold
  Abiraterone Cmax higher with food: approximately 17 fold
[5]; [9]
  Abiraterone AUC0-∞ higher with food: ~5 fold
  Abiraterone Cmax higher with food: approximately 7 fold
[5]; oral, patients with metastatic CRPC
  median time to reach maximum plasma Abiraterone concentrations: 2 h
[5]; single dose
  Abiraterone AUC0-∞ (exposure) increase (positive food effect): ≤ 10 fold
  Abiraterone Cmax increase (positive food effect): up to 17 fold
[5]; steady-state
  Abiraterone accumulation: steady-state AUC compared to a single 1,000 mg dose: 2 fold

## C[C@]12CC[C@H](OS(=O)(=O)O)CC1=CC[C@@H]1[C@@H]2CC[C@]2(C)C(c3ccc[n+]([O-])c3)=CC[C@@H]12 [N-oxide Abiraterone sulphate]
[1]; oral 14C-abiraterone acetate capsules
  share of exposure of circulating metabolite in human plasma: about 43%

## (3β)-17-(3-pyridinyl) androsta-5,16-dien-3-yl acetate [Abiraterone acetate]
[6]
  Apparent solubility: < 4 µg/mL
PAMPA permeability
  PAMPA permeability: below 0.1*10^−6 cm/s
